Among the data in patent publication US10208056B2, “Condensed tricyclic compounds as protein kinase inhibitors” (FUNDACIÓN DEL SECTOR PÚBLICO ESTATAL CENTRO NACIONAL DE …, priority 2015, dated 2019) are EC50, GI50 and IC50 values, retold here.

The structures appear in SMILES notation. Like-named read-outs stand apart in the source and are kept apart here.

Assay [1] deals with T1, intracellular HASPIN (Homo sapiens (Human), UniProt Q8TF76). Kind of assay: Endogenous phosphoH3 inhibition in SW620 cells growing in 10% FBS. Type of assay: cell-based. The note with it: semiquantitative, read-out: SW620 pH3(T3). The protocol: Endogenous phosphoH3 inhibition can be screened in cells growing in 10% FBS. Cells are plated as described before and treated for 8 h with compounds as described before. Then cells are lysated and phospho H3 evaluated as described before. The percentage of phosphorylated H3 vs total H3 in cells treated with DMSO is taken as hundred percent of phosphorylation. The percentage of H3 phosphorylation is finally plotted against concentration for each compound and EC50s for intracellular HASPIN inhibition are calculated using ActivityBase from IDBS.
T1 sequence (Q8TF76 whole entry): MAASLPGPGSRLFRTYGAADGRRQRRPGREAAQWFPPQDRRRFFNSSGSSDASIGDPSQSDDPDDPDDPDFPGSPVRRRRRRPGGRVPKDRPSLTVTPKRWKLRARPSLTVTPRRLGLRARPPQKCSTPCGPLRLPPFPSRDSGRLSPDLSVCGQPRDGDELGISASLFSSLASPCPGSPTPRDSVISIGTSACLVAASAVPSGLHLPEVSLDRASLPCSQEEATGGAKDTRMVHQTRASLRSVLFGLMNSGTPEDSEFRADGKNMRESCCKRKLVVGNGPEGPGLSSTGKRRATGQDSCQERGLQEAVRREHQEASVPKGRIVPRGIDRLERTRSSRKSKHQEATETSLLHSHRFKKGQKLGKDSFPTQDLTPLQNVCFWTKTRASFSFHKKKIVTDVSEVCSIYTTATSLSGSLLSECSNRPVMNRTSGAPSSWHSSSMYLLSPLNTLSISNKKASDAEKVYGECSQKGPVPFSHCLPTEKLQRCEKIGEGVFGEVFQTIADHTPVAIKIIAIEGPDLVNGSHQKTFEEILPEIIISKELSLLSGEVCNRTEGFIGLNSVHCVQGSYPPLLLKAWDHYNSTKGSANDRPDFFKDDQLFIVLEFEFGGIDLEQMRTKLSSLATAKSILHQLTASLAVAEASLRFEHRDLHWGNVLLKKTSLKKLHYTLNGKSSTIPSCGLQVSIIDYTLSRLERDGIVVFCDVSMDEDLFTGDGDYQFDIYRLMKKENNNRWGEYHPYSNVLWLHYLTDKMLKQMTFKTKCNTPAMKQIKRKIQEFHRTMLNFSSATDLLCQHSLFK

In another assay the test system is MDA-MB-231. As to the kind of experiment: In vitro cell proliferation assay (CellTiter-Glo), MDA-MB-231. Type of assay: cell-based. The settings on record: growth inhibition, semiquantitative, read-out: GI50 MDA-MB-231.
In another assay the test system is MV4:11. Kind of assay: In vitro cell proliferation assay (CellTiter-Glo), MV4:11. Format: cell-based. The settings on record: growth inhibition, semiquantitative, read-out: GI50 MV4:11.
Assay [2] has as its system SW620. Kind of assay: In vitro cell proliferation assay (CellTiter-Glo), SW620. Format: cell-based, human. The note with it: growth inhibition, semiquantitative, read-out: GI50 SW620.
The next assay addresses intracellular CDK8 (Homo sapiens (Human), UniProt P49336). Kind of assay: Endogenous phosphoSTAT1 inhibition in SW620 cells growing in 10% FBS. The settings on record: semiquantitative, read-out: SW620 P-STAT1(S727). Format: cell-based. On the procedure:
Endogenous phosphoSTAT1 inhibition can be screened in cells growing in 10% FBS. Cells are plated as described before and treated for 8 h with compounds as described before. Then cells are lysated and phospho STAT1 is evaluated as described before. The percentage of phosphorylated STAT1 vs total STAT1 in cells treated with DMSO is taken as hundred percent of phosphorylation. The percentage of STAT1 phosphorylation is finally plotted against concentration for each compound and EC50s for intracellular CDK8 inhibition are calculated using ActivityBase from IDBS.

The next assay deals with CDK8/Cyclin C (Homo sapiens (Human), UniProt P49336). As to the kind of experiment: CDK8/Cyclin C binding assay (LanthaScreen Eu-Kinase Binding Assay). The settings on record: binding assay. The protocol: The enzyme has been purchase from Invitrogen (PV4402) as a dimer of full-length His-tagged recombinant human proteins.
Sequence of CDK8/Cyclin C (P49336 whole entry): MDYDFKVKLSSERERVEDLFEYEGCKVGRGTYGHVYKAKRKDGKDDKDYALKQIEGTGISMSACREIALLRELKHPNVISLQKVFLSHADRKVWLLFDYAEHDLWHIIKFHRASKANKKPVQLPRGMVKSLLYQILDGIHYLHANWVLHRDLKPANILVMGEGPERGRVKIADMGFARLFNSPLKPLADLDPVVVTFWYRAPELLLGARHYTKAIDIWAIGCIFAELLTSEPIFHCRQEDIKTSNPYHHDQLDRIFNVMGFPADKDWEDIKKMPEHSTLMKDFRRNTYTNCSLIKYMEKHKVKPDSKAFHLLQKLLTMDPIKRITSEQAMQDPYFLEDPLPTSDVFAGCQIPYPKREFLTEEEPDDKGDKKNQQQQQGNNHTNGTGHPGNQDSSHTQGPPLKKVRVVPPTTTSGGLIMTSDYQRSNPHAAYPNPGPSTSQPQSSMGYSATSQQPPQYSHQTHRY
Sequence of CDK8/Cyclin C (P24863 whole entry partner): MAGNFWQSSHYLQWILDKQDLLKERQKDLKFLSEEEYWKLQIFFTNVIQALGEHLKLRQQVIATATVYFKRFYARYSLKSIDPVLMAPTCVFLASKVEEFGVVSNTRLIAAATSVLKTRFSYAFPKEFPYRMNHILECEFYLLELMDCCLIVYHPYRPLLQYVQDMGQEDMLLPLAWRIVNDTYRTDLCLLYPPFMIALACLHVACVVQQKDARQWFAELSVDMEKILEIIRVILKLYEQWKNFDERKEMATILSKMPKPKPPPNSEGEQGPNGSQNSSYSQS
Assays were performed in 384-well plates. The final read out was generated using an EnVision plate reader (Perkin-Elmer).
(TR-FRET usually uses a lanthanide donor and a delayed reading to cut background.)

The next assay concerns Molm13. Kind of assay: In vitro cell proliferation assay (CellTiter-Glo), Molm13. Format: cell-based. The note with it: growth inhibition, semiquantitative, read-out: GI50 Molm13.
A further assay has as its target Haspin kinase (Homo sapiens (Human), UniProt Q8TF76). Kind of assay: Haspin kinase assay (ADP-Glo). Format: biochemical. The settings on record: ATP 150 μM. The essentials: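 ADP-Glo luminescence measured the intrinsic ATPase activity, without peptide substrate, of the GST-tagged human Haspin kinase domain (20 nM) at 150 μM ATP. Reactions ran 60 min at 30 °C in HEPES pH 7.4 buffer with 10 mM MgCl2 and 1% DMSO. Inhibition was calculated against no-compound controls across 1:3 dilution series.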

The target of a further assay is CDK19/Cyclin C (Homo sapiens (Human), UniProt Q9BWU1). As to the kind of experiment: CDK19/Cyclin C binding assay (LanthaScreen Eu-Kinase Binding Assay). The note with it: read-out: CDK19-CYCC IC50. The essentials: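 LanthaScreen TR-FRET tracer-displacement format with 2 nM Cdk19-Cyclin C, 20 nM tracer and 2 nM Eu-anti-GST antibody. The buffer was 50 mM HEPES pH 7.5, 10 mM MgCl2, 1 mM EGTA, 0.01% Brij-35, with 1% DMSO final. Compounds were tested as 1:3 serial dilutions and incubated for 60 min at 25 °C.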
Sequence of CDK19/Cyclin C (Q9BWU1 whole entry): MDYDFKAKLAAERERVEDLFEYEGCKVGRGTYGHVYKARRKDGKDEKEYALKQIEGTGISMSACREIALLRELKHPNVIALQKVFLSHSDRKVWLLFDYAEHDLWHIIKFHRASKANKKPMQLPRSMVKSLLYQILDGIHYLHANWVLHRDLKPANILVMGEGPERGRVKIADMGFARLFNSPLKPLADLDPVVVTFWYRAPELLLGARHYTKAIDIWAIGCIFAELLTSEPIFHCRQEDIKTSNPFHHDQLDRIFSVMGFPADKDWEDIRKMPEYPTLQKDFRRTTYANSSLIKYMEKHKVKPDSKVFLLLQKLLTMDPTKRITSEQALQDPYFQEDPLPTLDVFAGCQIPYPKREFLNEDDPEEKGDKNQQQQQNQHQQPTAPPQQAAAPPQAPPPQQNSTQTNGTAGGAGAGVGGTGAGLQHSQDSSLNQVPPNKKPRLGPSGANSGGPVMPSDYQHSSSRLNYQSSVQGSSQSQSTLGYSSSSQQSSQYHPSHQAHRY
Sequence of CDK19/Cyclin C (P24863 whole entry partner): as the sequence (P24863 whole entry partner) above

The subject of a further assay is SKMEL19. As to the kind of experiment: Combination assay, SKMEL19. Format: cell-based. The note with it: Homo sapiens, SK-MEL19; SKMEL19, chemotherapeutic alone; read-out: Chemo GI50. The protocol:
(§1) The combination index (CI) of combinations of certain example compounds and various chemotherapeutic agents in the CellTitetI-Glo® in vitro cell proliferation assays may be tested. A combination index score is calculated by the Chou and Talalay method (CalcuSyn software, Biosoft). The strength of synergy is scored using the ranking system Chou and Talalay: CI less than 0.8 indicates synergy, CI between 0.8 and 1.2 indicates additivity and CI greater than 1.2 indicates antagonism.
(§2) The EC50 values of representative combinations are also calculated. The individually measured EC50 values of the chemotherapeutic agent and the example compounds are compared to the EC50 value of the combination. The cell lines are characterised by tumor type. Combination assays are performed as described in: “Pim 1 kinase inhibitor ETP-45299 suppresses cellular proliferation and synergizes with PI3K inhibition”. Blanco-Aparicio, Carmen; Collazo, Ana Maria Garcia; Oyarzabal, Julen; Leal, Juan F.; Albaran, Maria Isabel; Lima, Francisco Ramos; Pequeno, Belen; Ajenjo, Nuria; Becerra, Mercedes; Alfonso, Patricia; Reymundo, Maria Isabel; Palacios, Irene; Mateos, Genoveva; Quinones, Helena; Corrionero, Ana; Carnero, Amancio; Pevarello, Paolo; Lopez, Ana Rodriguez; Fominaya, Jesus; Pastor, Joaquin; Bischoff, James R. Cancer Letters (Shannon, Ireland) 2011, 300(2), 145-153

In another assay the test system is HCT116. Kind of assay: Combination assay, HCT116. Format: cell-based. The note with it: Homo sapiens, HCT-116; HCT116, chemotherapeutic alone; read-out: Chemo GI50. On the procedure:
as §1, §2

In assay [3] the test system is SW620. As to the kind of experiment: Combination assay, SW620. The settings on record: Homo sapiens, SW-620; SW620, chemotherapeutic alone; read-out: Chemo GI50. Format: cell-based, human. On the procedure: as §1, §2
The subject of a further assay is BXPC-3. Kind of assay: Combination assay, BXPC-3. The note with it: Homo sapiens; BXPC-3, chemotherapeutic alone; read-out: Chemo GI50. Type of assay: cell-based. On the procedure:
as §1, §2

Another assay relates to DU145. Kind of assay: Combination assay, DU145. Type of assay: cell-based. The settings on record: Homo sapiens, DU-145; DU145, chemotherapeutic alone; read-out: Chemo GI50. The protocol:
as §1
The EC50 values of representative combinations are also calculated. The individually measured EC50 values of the chemotherapeutic agent and the example compounds are compared to the EC50 value of the combination. The cell lines are characterised by tumor type. […] Blanco-Aparicio, Carmen; Collazo, Ana Maria Garcia; Oyarzabal, Julen; Leal, Juan F.; Albaran, Maria Isabel; Lima, Francisco Ramos; Pequeno, Belen; Ajenjo, Nuria; Becerra, Mercedes; Alfonso, Patricia; Reymundo, Maria Isabel; Palacios, Irene; Mateos, Genoveva; Quinones, Helena; Corrionero, Ana; Carnero, Amancio; Pevarello, Paolo; Lopez, Ana Rodriguez; Fominaya, Jesus; Pastor, Joaquin; Bischoff, James R. Cancer Letters (Shannon, Ireland) 2011, 300(2), 145-153

The target of assay [4] is T1, intracellular HASPIN. Kind of assay: Cellular HASPIN inhibition assay, western blot phospho H3T3 in synchronized SW620 cells. Type of assay: cell-based. The settings on record: semiquantitative, read-out: SW620 PH3(T3) in synchronized cells. On the procedure:
Compounds can be screened for their ability to inhibit intracellular HASPIN using a western blot assay to detect phosphorylation of the HASPIN substrate H3T3 in synchronized cells. SW620 cells are plated at 200000 cells per well in 6-well plates (Solmeglas 13118) in RPMI media (Sigma-Aldrich R6504) supplemented with 10% foetal bovine serum (Sigma-Aldrich F7524), Penicillin/Streptomycin solution diluted 1:100 (Gibco 15070-063), and fungizone (Gibco, 15290-018), and allowed to adhere overnight at 37° C. in 5% CO2. Cells are then treated 16 h hours with Nocadazole (Sigma-Aldrich M1404) at 250 ng/ml to arrest them in mitosis. Proteasoma inhibitor MG132 (Sigma-Aldrich C2211) is added to a final concentration of […] to keep cells arrested in mitosis. Compounds are then added to the cell media from a final concentration of 10 μM in 10-fold serial dilutions and the cells are incubated at 37° C. in 5% CO2. After 1 hour and 30 minutes of treatment with the compounds, the cells are washed in PBS, lysed adding 100 μl of protein lysis buffer (62.5 mM Tris pH 6.8 al 6.25%, 2% SDS y 10% glycerol) incubation 10 minutes at room temperature and heating at 95° C. 10 min. The protein content of the lysates is determined by DC protein assay (Biorad, Ref. 5000116). The proteins are resolved by SDS-PAGE and transferred to nitrocellulose membrane (VWR International eurolab, Ref. 732-4007). The membranes are incubated overnight at 4° C. with antibodies specific for total H3 (Millipore #07424), phosphothreonine-3 H3 (Cell Signaling Ref. 14269) they are washed and then incubated with IRDye800 conjugated anti-mouse (Pierce/Cultek, 35521) and Alexa Fluor 680 goat anti-rabbit IgG secondary antibodies (Invitrogen, A21076). The bands are visualized and quantified using an Odyssey infrared imaging system (Li-Cor Biosciences). The percentage of phosphorylated H3 vs total H3 in synchronized cells is taken as hundred percent of phosphorylation. The percentage of H3 phosphorylation is finally plotted against concentration for each compound and EC50s for intracellular HASPIN inhibition are calculated using ActivityBase from IDBS.
On the technique in general: In western blotting, separated proteins are transferred to a membrane and probed.

Sequence of intracellular CDK8 (P49336 whole entry): as the sequence (P49336 whole entry) above
Sequence of intracellular CDK8 (P24863 whole entry partner): as the sequence (P24863 whole entry partner) above
Sequence of intracellular CDK8 (Q93074 whole entry partner): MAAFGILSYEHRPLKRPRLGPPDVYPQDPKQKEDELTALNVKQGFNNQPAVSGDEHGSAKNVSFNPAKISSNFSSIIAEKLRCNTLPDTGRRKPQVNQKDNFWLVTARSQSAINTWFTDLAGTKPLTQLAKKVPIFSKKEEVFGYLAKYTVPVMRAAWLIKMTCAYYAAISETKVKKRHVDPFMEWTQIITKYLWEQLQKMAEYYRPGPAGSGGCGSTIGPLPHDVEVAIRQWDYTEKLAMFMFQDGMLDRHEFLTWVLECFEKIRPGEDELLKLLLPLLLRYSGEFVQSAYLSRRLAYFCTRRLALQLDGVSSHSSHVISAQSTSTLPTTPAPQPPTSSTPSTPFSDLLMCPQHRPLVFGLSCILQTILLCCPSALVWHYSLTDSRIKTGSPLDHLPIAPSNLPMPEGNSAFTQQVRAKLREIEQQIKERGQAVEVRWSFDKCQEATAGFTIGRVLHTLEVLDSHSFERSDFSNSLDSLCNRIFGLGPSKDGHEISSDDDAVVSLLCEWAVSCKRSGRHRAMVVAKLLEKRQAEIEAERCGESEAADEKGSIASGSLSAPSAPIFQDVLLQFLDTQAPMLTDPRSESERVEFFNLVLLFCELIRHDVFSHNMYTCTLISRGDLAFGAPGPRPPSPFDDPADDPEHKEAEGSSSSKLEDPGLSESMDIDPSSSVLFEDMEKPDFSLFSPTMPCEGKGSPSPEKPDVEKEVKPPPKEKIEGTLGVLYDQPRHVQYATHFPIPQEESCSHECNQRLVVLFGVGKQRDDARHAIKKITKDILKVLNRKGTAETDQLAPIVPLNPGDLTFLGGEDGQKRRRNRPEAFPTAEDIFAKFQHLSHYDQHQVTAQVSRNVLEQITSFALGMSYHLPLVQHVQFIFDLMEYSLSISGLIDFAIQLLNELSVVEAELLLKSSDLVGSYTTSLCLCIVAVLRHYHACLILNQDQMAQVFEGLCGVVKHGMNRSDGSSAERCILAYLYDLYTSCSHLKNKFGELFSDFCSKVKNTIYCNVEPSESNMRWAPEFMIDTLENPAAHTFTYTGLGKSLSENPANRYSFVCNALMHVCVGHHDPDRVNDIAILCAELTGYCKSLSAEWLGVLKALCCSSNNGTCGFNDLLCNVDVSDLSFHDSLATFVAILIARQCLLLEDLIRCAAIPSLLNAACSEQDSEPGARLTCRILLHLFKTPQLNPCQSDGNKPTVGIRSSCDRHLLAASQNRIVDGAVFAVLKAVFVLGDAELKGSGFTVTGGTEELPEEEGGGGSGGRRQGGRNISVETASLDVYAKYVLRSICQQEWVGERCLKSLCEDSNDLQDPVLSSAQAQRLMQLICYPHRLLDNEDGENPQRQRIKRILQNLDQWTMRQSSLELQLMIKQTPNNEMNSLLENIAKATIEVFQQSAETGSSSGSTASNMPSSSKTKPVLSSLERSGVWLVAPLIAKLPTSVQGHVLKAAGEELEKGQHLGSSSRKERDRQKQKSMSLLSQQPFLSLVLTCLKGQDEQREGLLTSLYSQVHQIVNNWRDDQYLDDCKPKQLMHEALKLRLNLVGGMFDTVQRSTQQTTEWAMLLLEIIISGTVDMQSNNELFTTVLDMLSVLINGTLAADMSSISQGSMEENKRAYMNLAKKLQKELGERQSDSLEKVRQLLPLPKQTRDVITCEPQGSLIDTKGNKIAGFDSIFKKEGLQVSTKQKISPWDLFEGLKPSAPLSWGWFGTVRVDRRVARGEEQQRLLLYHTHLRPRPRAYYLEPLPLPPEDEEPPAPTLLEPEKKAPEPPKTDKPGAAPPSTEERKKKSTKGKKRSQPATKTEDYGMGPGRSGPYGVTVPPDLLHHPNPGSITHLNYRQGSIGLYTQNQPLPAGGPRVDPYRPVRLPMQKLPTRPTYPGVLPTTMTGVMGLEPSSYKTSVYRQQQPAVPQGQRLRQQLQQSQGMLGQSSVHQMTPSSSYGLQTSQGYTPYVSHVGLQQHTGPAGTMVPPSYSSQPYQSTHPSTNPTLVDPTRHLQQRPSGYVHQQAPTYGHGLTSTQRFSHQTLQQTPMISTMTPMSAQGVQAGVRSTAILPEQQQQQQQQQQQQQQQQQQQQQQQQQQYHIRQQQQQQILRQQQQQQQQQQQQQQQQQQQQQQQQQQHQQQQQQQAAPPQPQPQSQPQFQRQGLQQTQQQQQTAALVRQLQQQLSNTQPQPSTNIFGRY
Sequence of Haspin kinase (Q8TF76 484-798): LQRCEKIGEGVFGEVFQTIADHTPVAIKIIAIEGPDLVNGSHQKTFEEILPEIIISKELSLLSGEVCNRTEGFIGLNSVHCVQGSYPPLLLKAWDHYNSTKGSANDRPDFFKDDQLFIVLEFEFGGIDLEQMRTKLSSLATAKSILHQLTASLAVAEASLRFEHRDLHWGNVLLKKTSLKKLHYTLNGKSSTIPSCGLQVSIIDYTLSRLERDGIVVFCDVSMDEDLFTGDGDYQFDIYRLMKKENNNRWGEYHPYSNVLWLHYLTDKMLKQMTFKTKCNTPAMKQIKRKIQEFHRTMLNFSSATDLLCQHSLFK

As to `CCn1c(C(N)=O)cc2c1-c1ccncc1O[C@@H]2C1CCCCC1` (single isomer, unassigned) [Example 90], the EC50 on intracellular HASPIN [1] and on intracellular CDK8 was under 500 nM in each case. The concentration for 50% growth inhibition (GI50) was 10000 to 100000 nM with MDA-MB-231, under 1000 nM in the assay with MV4:11, 10000 to 100000 nM in the assay on SW620 [2] and 1000 to 10000 nM in the assay with Molm13. Further, the IC50 was found to be 1.36 nM at CDK8/Cyclin C, 522 nM against Haspin kinase and 1.41 nM on CDK19/Cyclin C.

Turning to `C[C@@H](Oc1cc(-c2cnn(C3CCNCC3)c2)cnc1N)c1c(Cl)ccc(F)c1Cl` [Crizotinib, crizotinib, reference compound], the GI50 was 5000 nM with SKMEL19; 5000 nM in the assay with HCT116; 1000 nM in the assay with SW620 [3]; 5000 nM with BXPC-3; 20000 nM in the assay on DU145.

For the compound `CCn1c(C(N)=O)cc2c1-c1ccncc1OC21CCN(CC(F)(F)F)CC1` [Example 79], the EC50 on intracellular HASPIN [1] and on intracellular CDK8 was under 500 nM in each case. For the same compound, the GI50 in the assay with MDA-MB-231 (Homo sapiens, MDA-MB-231) is 1000 to 10000 nM; with MV4:11 (Homo sapiens, MV4-11) it was under 1000 nM; in the assay on SW620 [2] (Homo sapiens, SW-620), 1000 to 10000 nM; with Molm13 (Homo sapiens, MOLM-13) it was under 1000 nM. Moreover, the IC50 on CDK8/Cyclin C turned out to be 1.11 nM; on Haspin kinase, 38.6 nM; at CDK19/Cyclin C, 3.14 nM.

For the compound `CCn1c(C(N)=O)cc2c1-c1ccncc1OC21CCOCC1` [Example 82], the EC50 at intracellular HASPIN [1] and on intracellular CDK8 was under 500 nM each time. Also, the 50% growth inhibitory concentration (GI50) in the assay with MDA-MB-231 (Homo sapiens, MDA-MB-231) is 1000 to 10000 nM; in the assay on MV4:11 (Homo sapiens, MV4-11), under 1000 nM; in the assay with SW620 [2] (Homo sapiens, SW-620), 1000 to 10000 nM; in the assay with Molm13 (Homo sapiens, MOLM-13) it was under 1000 nM. In addition, the results for the half-maximal inhibitory concentration (IC50) on CDK8/Cyclin C, against Haspin kinase and on CDK19/Cyclin C were 2.19 nM, 12.8 nM and 4.58 nM, respectively.

With `NC(=O)c1cc2c(n1CCF)-c1ccncc1OC21CCCCC1` [Example 84], the EC50 on intracellular HASPIN [1] and at intracellular CDK8 was under 500 nM each time. Besides, the concentration for 50% growth inhibition (GI50) in the assay on MDA-MB-231 (Homo sapiens, MDA-MB-231) was 1000 to 10000 nM; with MV4:11 (Homo sapiens, MV4-11), under 1000 nM; in the assay with SW620 [2] (Homo sapiens, SW-620), 1000 to 10000 nM; in the assay with Molm13 (Homo sapiens, MOLM-13) it was under 1000 nM. Besides, the IC50 is 1.41 nM at CDK8/Cyclin C, 42.1 nM on Haspin kinase and 148 nM on CDK19/Cyclin C.

On to `CCn1c(C(N)=O)cc2c1-c1ccncc1OC21CCNCC1` [Example 91], for which the EC50 at intracellular HASPIN [1] and on intracellular HASPIN [4] was under 500 nM in each case. Besides, the GI50 in the assay with MDA-MB-231 (Homo sapiens, MDA-MB-231) was 1000 to 10000 nM; in the assay on MV4:11 (Homo sapiens, MV4-11), under 1000 nM; in the assay with SW620 [2] (Homo sapiens, SW-620) it was 1000 to 10000 nM; in the assay with Molm13 (Homo sapiens, MOLM-13), under 1000 nM. The concentration for half-maximal inhibition (IC50) on CDK8/Cyclin C is 301 nM; against Haspin kinase, 16.5 nM.

Usually GI50 stands for the concentration giving 50% growth inhibition. Usually IC50 stands for the midpoint of a concentration-inhibition curve.
